# Measured values: PMC9241695, “Selective Metal Chelation by a Thiosemicarbazone Derivative Interferes with Mitochondrial Respiration and Ribosome Biogenesis in Candida albicans” (Microbiology Spectrum, 2022)
# Columns and labels:
# [1] = test system: C. albicans SC5314; assay: Antifungal susceptibility testing, microbroth dilution MIC; type: cell-based; details: Candida albicans, SC5314; C. albicans wild-type strain; RPMI1640, 35°C, 24 h; read-out: MIC (μg/mL) against fungi SC5314
# From the text: (§1) Compound library. The thiosemicarbazone derivatives Triapine and COTI-2 were purchased from Med Chem Express (MCE). The other 87 thiosemicarbazones used in this study were previously synthesized by our collaborators (1, 2). Their structures are shown in Table 1 and Table S1 to help the reader clearly understand the relationship between structure and activity.
# (§2) Strains and culture conditions. Clinically derived C. albicans isolates, including G5, F5, and Gu5, were kindly provided by Professor Joachim Morschhäuser of the University of Würzburg. Other clinical C. albicans isolates were kindly donated by Professor Qingguo Qi of Shandong University and Qianfoshan Hospital of Shandong Province Other Candida strains were obtained from Jinan Central Hospital.
# (§3) The zap1 mutant and its complemented strain were kindly provided by Professor Aaron P. Mitchell of Carnegie Mellon University (3). The C. neoformans strains used in this study was kindly donated by Professor Guojian Liao of Southwest University and A. fumigatus strain used in this study was provided by Professor Ling Lu of Nanjing Normal University. Before in vitro and in vivo experiments, all C. albicans strains were grown on YPD agar plates. After culturing at 30°C for 24 h, colonies of each strain were cultured in liquid YPD medium at 30°C with continuous shaking […]
# (§4) Antifungal susceptibility testing. To determine in vitro antifungal activities, the microbroth dilution method was carried out in RPMI1640 medium according to the guidelines of the Clinical and Laboratory Standards Institute (4, 5). The initial concentration in RPMI1640 medium was 1 × 10^3 CFU/mL for the C. albicans and C. neoformans suspensions but 1 × 10^4 CFU/mL for A. fumigatus. The range of final drug concentrations was 0.0156–64 μg/mL. The plates were incubated at35°C for 24 […]
# (§5) h (for C. albicans, C. krusei, C. tropicalis, C. parapsilosis) or 48 h (for C. neoformans, A. fumigatus). The MIC was determined based on visible growth inhibition compared with the control. All experiments were performed in duplicate. […]
# [2] = test system: C. albicans SC5314; assay: G. mellonella infection model; type: in vivo, Galleria mellonella; details: 19ak 0.4 μg per larva, FLC 2 μg per larva
# Protocol: The G. mellonella infection model was used to evaluate the in vivo activity of 19ak in terms of survival, fungal burden, and histological features. A total of 60 larvae of similar size were selected and randomly allocated to four groups. The last right foreleg of each larva was injected with 10 μL of C. albicans SC5314 suspension (2 × 10^7 CFU/mL). Two hours after infection, the larvae were injected with 10 μL of drug or vehicle as follows for the four groups: 19ak (0.4 μg per larva), FLC (2 μg per larva), control (PBS), and blank control (no injection with C. albicans but injections of sterile PBS twice). The data for the blank control are not shown because this group survived well during the experiment. Failure to respond to light contact with forceps was considered a sign of larval death. In the survival assay, the number of surviving larvae in each group was calculated at the same time every day for 4 days.
# To determine fungal burden, larval infection and treatment were performed as described above with groups of 30 larvae each. Each day, five larvae were randomly selected from each group and homogenized with glass beads in 0.5 mL of sterile PBS. The homogenate was serially diluted with sterile PBS, and 5 μL was spread on a yeast-peptone-dextrose solid plate ([62]). Experiments were performed at least three times independently.
# We also conducted histopathological studies to explore the therapeutic effects of the drugs on G. mellonella fungal infection. First, the groups of larvae were infected as described above. After 48 h, three larvae from each group were randomly selected and fixed in 4% paraformaldehyde for sectioning and Periodic acid-Schiff (PAS) staining. The tissue was observed and photographed under an Olympus microscope with 40 × magnification (IX71, Olympus, Tokyo, Japan). The experiments were performed independently a minimum of three times.
# [3] = test system: C. krusei CK1; assay: Microbroth dilution MIC80; type: cell-based, Candida krusei; details: Pichia kudriavzevii; C. krusei CK1; read-out: MIC80
# From the text: as §1, §2, §3, §4, §5
# [4] = test system: C. parapsilosis CP001; assay: Microbroth dilution MIC80; type: cell-based, Candida parapsilosis; details: Lodderomyces parapsilosis; C. parapsilosis CP001; read-out: MIC80
# From the text: as §1, §2, §3, §4, §5
# [5] = test system: C. neoformans H99; assay: Antifungal susceptibility testing, microbroth dilution MIC; type: cell-based; details: Cryptococcus neoformans, H99; C. neoformans wild-type strain; 48 h; read-out: MIC (μg/mL) against fungi H99
# From the text: as §1, §2
# (§6) The zap1 mutant and its complemented strain were kindly provided by Professor Aaron P. Mitchell of Carnegie Mellon University (3). The C. neoformans strains used in this study was kindly donated by Professor Guojian Liao of Southwest University and A. fumigatus strain used in this study was provided by Professor Ling Lu of Nanjing Normal University. […]
# as §4, §5
# [6] = test system: A. fumigatus AF293; assay: as above; type: cell-based; details: Aspergillus fumigatus, AF293; standard strain of A. fumigatus; 48 h; read-out: MIC (μg/mL) against fungi AF293
# From the text: as §1, §2, §6, §4, §5
# [7] = test system: C. albicans SC5314; assay: Drug resistance study by serial passage; type: cell-based, Candida albicans; details: RPMI 1640 medium, 40-day period, passages at 0.5 × MIC
# [8] = test system: C. albicans 24g; assay: Microbroth dilution MIC80; type: cell-based; details: Candida albicans; C. albicans 24g; read-out: MIC80
# From the text: as §1, §2, §3, §4, §5
# [9] = test system: C. albicans 11e; assay: Microbroth dilution MIC80; type: cell-based; details: Candida albicans; C. albicans 11e; read-out: MIC80
# From the text: as §1, §2, §3, §4, §5
# [10] = test system: C. albicans YEM13; assay: Microbroth dilution MIC80; type: cell-based; details: Candida albicans
# From the text: as §1, §2, §3, §4, §5
# [11] = test system: A. fumigatus 1161; assay: Microbroth dilution MIC80; type: cell-based; details: Aspergillus fumigatus; A. fumigatus 1161; read-out: MIC80
# From the text: as §1, §2, §3, §4, §5
# [12] = test system: C. albicans CA4; assay: Microbroth dilution MIC80; type: cell-based; details: Candida albicans; C. albicans CA4; read-out: MIC80
# From the text: as §1, §2, §3, §4, §5
# [13] = test system: C. albicans 11f; assay: Microbroth dilution MIC80; type: cell-based; details: Candida albicans; C. albicans 11f; read-out: MIC80
# From the text: as §1, §2, §3, §4, §5
# [14] = test system: C. albicans 28D; assay: Microbroth dilution MIC80; type: cell-based; details: Candida albicans; C. albicans 28D; read-out: MIC80
# From the text: as §1, §2, §3, §4, §5
# [15] = test system: C. albicans DSY654; assay: Microbroth dilution MIC80; type: cell-based; details: Candida albicans
# From the text: as §1, §2, §3, §4, §5
# [16] = test system: C. albicans YEM15; assay: Microbroth dilution MIC80; type: cell-based; details: Candida albicans; C. albicans YEM15; read-out: MIC80
# From the text: as §1, §2, §3, §4, §5
# [17] = test system: C. albicans CA1; assay: Microbroth dilution MIC80; type: cell-based; details: Candida albicans; C. albicans CA1; read-out: MIC80
# From the text: as §1, §2, §3, §4, §5
# [18] = test system: C. albicans 28I; assay: Microbroth dilution MIC80; type: cell-based; details: Candida albicans; C. albicans 28I; read-out: MIC80
# From the text: as §1, §2, §3, §4, §5
# [19] = test system: C. albicans CA3; assay: Microbroth dilution MIC80; type: cell-based; details: Candida albicans; C. albicans CA3; read-out: MIC80
# From the text: as §1, §2, §3, §4, §5
# [20] = test system: C. albicans 28A; assay: Microbroth dilution MIC80; type: cell-based; details: Candida albicans; C. albicans 28A; read-out: MIC80
# From the text: as §1, §2, §3, §4, §5
# [21] = test system: C. neoformans 108; assay: Microbroth dilution MIC80; type: cell-based; details: Cryptococcus neoformans; C. neoformans 108; read-out: MIC80
# From the text: as §1, §2, §3, §4, §5
# [22] = test system: C. albicans F5; assay: Microbroth dilution MIC80; type: cell-based; details: Candida albicans; C. albicans F5; read-out: MIC80
# From the text: as §1, §2, §3, §4, §5
# [23] = test system: C. tropicalis CT2; assay: Microbroth dilution MIC80; type: cell-based; details: Candida tropicalis; C. tropicalis CT2; read-out: MIC80
# From the text: as §1, §2, §3, §4, §5
# [24] = test system: C. albicans G5; assay: microbe, parasite or virus in culture; type: cell-based; details: Candida albicans; C. albicans G5; read-out: MIC80
# From the text: as §1, §2, §3, §4, §5
# [25] = test system: C. albicans Gu5; assay: microbe, parasite or virus in culture; type: cell-based; details: Candida albicans; C. albicans Gu5; read-out: MIC80
# From the text: as §1, §2, §3, §4, §5
smiles,measurement,setting,value
"OC(Cn1cncn1)(Cn1cncn1)c1ccc(F)cc1F [FLC, fluconazole, reference compound]",MIC,[1],2 µg/mL
same,Histopathology of infected larvae,"[2]; 48 h, PAS staining",fewer infected areas
same,Fungal burden of infected larvae,[2]; compared with the control group,greatly reduced the fungal burden
same,MIC80,[3],2 µg/mL
same,MIC80,[4],1 µg/mL
same,MIC,[5],2 µg/mL
same,MIC,[6],> 64 µg/mL
same,Change of MIC after repeated exposure,[7],significant increase in the MIC value
same,MIC80,[8],1 µg/mL
same,MIC80,[9],1 µg/mL
same,MIC80,[10],64 µg/mL
same,MIC80,[11],> 64 µg/mL
same,MIC80,[12],8 µg/mL
same,MIC80,[13],1 µg/mL
same,MIC80,[14],> 128 µg/mL
same,MIC80,[15],0.25 µg/mL
same,MIC80,[16],64 µg/mL
same,MIC80,[17],2 µg/mL
same,MIC80,[18],> 128 µg/mL
same,MIC80,[19],2 µg/mL
same,MIC80,[20],> 128 µg/mL
same,MIC80,[21],2 µg/mL
same,MIC80,[22],> 128 µg/mL
same,MIC80,[23],2 µg/mL
same,MIC80,[24],> 128 µg/mL
same,MIC80,[25],> 128 µg/mL
